The values that follow come from patent US7435837B2, “Dihydrobenzofuranyl alkanamine derivatives and methods for using same” (Wyeth, priority 2003, dated 2008).

pKi: −log10 of the molar value.

The pKi is the Ki on a negative log10 scale, so that one unit is a factor of ten.

The assay has as its target T1, human 5-hydroxytryptamine-2C (h5-HT2C) receptor (Homo sapiens, UniProt P28335).
T1 construct: expressed in transfected cells; host or cells: CHO (Chinese Hamster Ovary) cells; membranes
T1 sequence (P28335 33-458): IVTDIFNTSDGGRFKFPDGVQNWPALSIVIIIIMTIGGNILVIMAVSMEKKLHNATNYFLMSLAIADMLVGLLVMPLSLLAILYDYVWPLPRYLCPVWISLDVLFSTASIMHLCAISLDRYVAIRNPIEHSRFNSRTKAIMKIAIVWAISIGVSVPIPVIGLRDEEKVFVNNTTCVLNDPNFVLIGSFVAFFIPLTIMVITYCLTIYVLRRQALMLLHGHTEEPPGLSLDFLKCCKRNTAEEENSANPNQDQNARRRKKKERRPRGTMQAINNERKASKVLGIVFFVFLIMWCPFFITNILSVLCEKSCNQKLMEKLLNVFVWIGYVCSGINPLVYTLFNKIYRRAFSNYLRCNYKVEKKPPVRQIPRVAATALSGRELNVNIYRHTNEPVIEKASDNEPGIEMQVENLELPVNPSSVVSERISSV
The experiment in a line: [125I]DOI binding to membranes of CHO cells expressing the human 5-HT2C receptor. Particulars: [125I]DOI radioligand, CHO cell membranes, room temperature 60 min; read-out: 5-HT2C Affinity Ki.
With `COc1ccc(Nc2cccc3c2OC(CN)C3)cc1` (racemic) [Example 176, (±)-N-[2-(aminomethyl)-2,3-dihydro-1-benzofuran-7-yl]-N-(4-methoxyphenyl)amine], the pKi was 6.31.

As to `NCC1Cc2cc(-c3ccccc3)cc(-c3ccccc3Cl)c2O1` (racemic) [Example 345, (±)-{[7-(2-chlorophenyl)-5-phenyl-2,3-dihydro-1-benzofuran-2-yl]methyl}amine], the pKi is 7.01.

Turning to `NCC1Cc2cccc(-c3ccc4ccccc4c3)c2O1` (racemic) [Example 39, (±)-1-[7-(2-naphthyl)-2,3-dihydro-1-benzofuran-2-yl]methanamine], the pKi was 7.37.

Regarding `NCC1Cc2cccc(Nc3ccc(F)cc3)c2O1` (racemic) [Example 178, (±)-N-[2-(aminomethyl)-2,3-dihydro-1-benzofuran-7-yl]-N-(4-fluorophenyl)amine], the pKi was 6.51. `Cc1cccc(-c2cc(Cl)cc3c2OC(CN)C3)c1` (racemic) [Example 88, (±)-1-[5-chloro-7-(3-methylphenyl)-2,3-dihydro-1-benzofuran-2-yl]methanamine]: the pKi is 7.32.

Turning to `NCC1Cc2cc(-c3cccc(F)c3)cc(F)c2O1` (racemic) [Example 381, (±)-{[7-fluoro-5-(3-fluorophenyl)-2,3-dihydro-1-benzofuran-2-yl]methyl}amine], the pKi was 6.03. The same measure for `Cc1cc(C)cc(Nc2cccc3c2OC(CN)C3)c1` (racemic) [Example 192, (±)-N-[2-(aminomethyl)-2,3-dihydro-1-benzofuran-7-yl]-N-(3,5-dimethylphenyl)amine]: 6.85; for `Cc1ccccc1-c1cc(F)c2c(c1)CC(CN)O2` (racemic) [Example 375, (±)-{[7-fluoro-5-(2-methylphenyl)-2,3-dihydro-1-benzofuran-2-yl]methyl}amine]: 7.15; for `COc1cc(Cl)cc2c1OC(CN)C2` (racemic) [Example 111, (±)-1-(5-chloro-7-methoxy-2,3-dihydro-1-benzofuran-2-yl)methanamine]: 7.59. The figure for `NCC1Cc2cccc(Nc3ccc(Cl)c(Cl)c3)c2O1` (racemic) [Example 179, (±)-N-[2-(aminomethyl)-2,3-dihydro-1-benzofuran-7-yl]-N-(3,4-dichlorophenyl)amine] is 6.36; for `NCC1Cc2cc(-c3ccc(C(F)(F)F)cc3)cc(F)c2O1` (racemic) [Example 388, (±)-({7-fluoro-5-[4-(trifluoromethyl)phenyl]-2,3-dihydro-1-benzofuran-2-yl}methyl)amine] it is 5.80; for `NCC1Cc2cc(Cl)cc(-c3cccc(Cl)c3)c2O1` (racemic) [Example 89, (±)-1-[5-chloro-7-(3-chlorophenyl)-2,3-dihydro-1-benzofuran-2-yl]methanamine] it is 7.40. With `CNCC1Cc2cc(C(F)(F)F)cc(-c3cccc(F)c3)c2O1` (racemic) [Example 520, (±)-N-methyl-1-[7-(3-fluorophenyl)-5-(trifluoromethyl)-2,3-dihydro-1-benzofuran-2-yl]methanamine], the pKi was 6.43. As for `NCC1Cc2cc(C(F)(F)F)cc(-c3cccc(F)c3)c2O1` (racemic) [Example 319, (±)-{[5-(trifluoromethyl)-7-(3-fluorophenyl)-2,3-dihydro-1-benzofuran-2-yl]methyl}amine], the pKi is 7.08.

For the compound `NCC1Cc2cc(C(F)(F)F)cc(-c3cccc(Cl)c3)c2O1` (racemic) [Example 320, (±)-{[5-(trifluoromethyl)-7-(3-chlorophenyl)-2,3-dihydro-1-benzofuran-2-yl]methyl}amine], the pKi is 6.97.

On to `NCC1Cc2cccc(Nc3cc(F)cc(F)c3)c2O1` (racemic) [Example 186, (±)-N-[2-(aminomethyl)-2,3-dihydro-1-benzofuran-7-yl]-N-(3,5-difluorophenyl)amine], for which the pKi was 6.77. For the compound `CNCC1Cc2cc(Cl)cc(C3CCCCC3)c2O1` (racemic) [Example 12, (±)-N-[(5-chloro-7-cyclohexyl-2,3-dihydro-1-benzofuran-2-yl)methyl]-N-methylamine], the pKi is 6.90. As to `COc1ccc2c(c1)OC(CN)C2` (racemic) [Example 30, (±)-1-(6-methoxy-2,3-dihydro-1-benzofuran-2-yl)methanamine], the pKi was 6.72. With `COc1cc2c(c(C(C)(C)C)c1)OC(CN)C2` (single isomer, unassigned; (-)) [Example 115, (−)-1-(7-tert-butyl-5-methoxy-2,3-dihydro-1-benzofuran-2-yl)methanamine], the pKi was 7.10.

For the compound `CN(C)C[C@H]1Cc2cc(F)cc(-c3c(Cl)cccc3Cl)c2O1` [Example 547, (R)-[7-(2,6-dichloro-phenyl)-5-Fluoro-2,3-dihydro-benzofuran-2-ylmethyl]dimethylamine], the pKi is 8.74. For the compound `Cc1cccc(Nc2cccc3c2OC(CN)C3)c1` (racemic) [Example 182, (±)-N-[2-(aminomethyl)-2,3-dihydro-1-benzofuran-7-yl]-N-(3-methylphenyl)amine], the pKi was 6.55. For the compound `COc1cc2c(c(C(C)(C)C)c1)OC(CN)C2` (racemic) [Example 13, (±)-(7-tert-butyl-5-methoxy-2,3-dihydro-1-benzofuran-2-yl)methylamine], the negative-log Ki (pKi) is 6.88. The figure for `NCCC1Cc2ccc(Cl)c(-c3ccccc3Cl)c2O1` (racemic) [Example 552, (±)-{2-[6-chloro-7-(2-chlorophenyl)-2,3-dihydro-1 benzofuran-2-yl]ethyl}amine] is 9.52; for `NCC1Cc2cc(-c3cccc(Cl)c3)cc(F)c2O1` (racemic) [Example 382, (±)-{[7-fluoro-5-(3-chlorophenyl)-2,3-dihydro-1-benzofuran-2-yl]methyl}amine] it is 6.10; for `NCC1Cc2cc(-c3ccccc3)cc(-c3cc(Cl)ccc3Cl)c2O1` (racemic) [Example 355, (±)-{[7-(2,5-dichlorophenyl)-5-phenyl-2,3-dihydro-1-benzofuran-2-yl]methyl}amine] it is 6.41. On to `NCC1Cc2c(C(F)(F)F)ccc(Cl)c2O1` (racemic) [Example 14, (±)-[7-chloro-4-(trifluoromethyl)-2,3-dihydro-1-benzofuran-2-yl]methanamine], for which the negative-log Ki (pKi) was 7.11. Take `CNCC1Cc2ccc(Cl)c(-c3ccccc3Cl)c2O1` (racemic) [Example 404, (±)-{[6-chloro-7-(2-chlorophenyl)-2,3-dihydro-1-benzofuran-2-yl]methyl}methylamine]: the negative logarithm of the Ki (pKi) is 9.40. Take `CNCC1Cc2cc(-c3ccccc3)cc(-c3ccccc3F)c2O1` (racemic) [Example 508, (±)-{[7-(2-fluorophenyl)-5-phenyl-2,3-dihydro-1-benzofuran-2-yl]methyl}methylamine]: the pKi was 5.75. In the case of `NCC1Cc2cc(C(F)(F)F)cc(-c3ccc(F)c(F)c3)c2O1` (racemic) [Example 334, (±)-{[7-(3,4-difluorophenyl)-5-(trifluoromethyl)-2,3-dihydro-1-benzofuran-2-yl]methyl}amine], the pKi is 6.49. The figure for `CNCC1Cc2cc(-c3ccccc3)cc(-c3ccc(C)cc3)c2O1` (racemic) [Example 513, (±)-{[7-(4-methylphenyl)-5-phenyl-2,3-dihydro-1-benzofuran-2-yl]methyl}methylamine] is 5.94; for `Cc1ccccc1-c1cc(-c2ccccc2)cc2c1OC(CN)C2` (racemic) [Example 351, (±)-{[7-(2-methylphenyl)-5-phenyl-2,3-dihydro-1-benzofuran-2-yl]methyl}amine] it is 7.06; for `NCC1Cc2cccc(Nc3cccc(Cl)c3)c2O1` (racemic) [Example 190, (±)-N-[2-(aminomethyl)-2,3-dihydro-1-benzofuran-7-yl]-N-(3-chlorophenyl)amine] it is 6.73.

For `CNCC1Cc2cc(-c3ccc(Cl)cc3)cc(F)c2O1` (racemic) [Example 539, (±)-{7-fluoro-5-[4-chlorophenyl]-2,3-dihydro-1-benzofuran-2-yl}methyl)methylamine], the pKi is 6.68. `NCC1Cc2ccc(Cl)c(-c3ccccc3Cl)c2O1` (racemic) [Example 400, (±)-{[6-chloro-7-(2-chlorophenyl)-2,3-dihydro-1-benzofuran-2-yl]methyl}amine]: the pKi is 9.30. Take `NCC1Cc2cccc(Nc3cc(Cl)cc(Cl)c3)c2O1` (racemic) [Example 189, (±)-N-[2-(aminomethyl)-2,3-dihydro-1-benzofuran-7-yl]-N-(3,5-dichlorophenyl)amine]: the pKi was 6.44.

In the case of `Cc1ccc(Nc2cccc3c2OC(CN)C3)cc1Cl` (racemic) [Example 188, (±)-N-[2-(aminomethyl)-2,3-dihydro-1-benzofuran-7-yl]-N-(3-chloro-4-methylphenyl)amine], the pKi is 6.24. Consider `COc1cc2c(c(C(C)(C)C)c1)OC(CN)C2` (single isomer, unassigned; (+)) [Example 116, (+)-1-(7-tert-butyl-5-methoxy-2,3-dihydro-1-benzofuran-2-yl)methanamine], for which the pKi was 6.28.

Regarding `Cc1cccc(-c2cc(F)c3c(c2)CC(CN)O3)c1` (racemic) [Example 380, (±)-{[7-fluoro-5-(3-methylphenyl)-2,3-dihydro-1-benzofuran-2-yl]methyl}amine], the pKi is 6.37.
